# Results from US20210307271A1, “OPTIMIZATION OF ALGAL PRODUCT PRODUCTION THROUGH UNCOUPLING CELL PROLIFERATION AND ALGAL PRODUCT PRODUCTION” (priority 2008, published 2021).
# Columns and labels:
# Assay type in all cases: cell-based
# Design in all cases: unit not given here
# Chlorella protothecoides [1] = test: Effect of hormone concentrations on growth rate, heterotrophic conditions, 48 hours; conditions: control 1.54 ± 0.080
# Chlorella protothecoides [2] = test: Effect of hormone concentrations on growth rate, photoheterotrophic conditions, 48 hours; conditions: control 1.05 ± 0.020
# Scenedesmus obliquus [3] = test: Effect of hormone concentrations on growth rate, heterotrophic conditions, 48 hours; conditions: control 0.35 ± 0.023
# Scenedesmus obliquus [4] = test: Effect of hormone concentrations on growth rate, photoheterotrophic conditions, 48 hours; conditions: control 0.41 ± 0.042
smiles,measurement,setting,value
"O=C(O)Cc1cccc2ccccc12 [1-Naphthaleneacetic acid, 1-naphthaleneacetic acid]",growth rate,Chlorella protothecoides [1]; hormone 0.01 ng,1.66 ± 0.140
same,growth rate,Chlorella protothecoides [1]; hormone 0.1 ng,1.54 ± 0.081
same,growth rate,Chlorella protothecoides [1]; hormone 1 ng,1.62 ± 0.136
same,growth rate,Chlorella protothecoides [1]; hormone 10 ng,1.57 ± 0.028
same,growth rate,Chlorella protothecoides [1]; hormone 100 ng,1.62 ± 0.064
same,growth rate,Chlorella protothecoides [2]; hormone 0.01 ng,1.00 ± 0.058
same,growth rate,Chlorella protothecoides [2]; hormone 0.1 ng,1.02 ± 0.050
same,growth rate,Chlorella protothecoides [2]; hormone 1 ng,1.05 ± 0.035
same,growth rate,Chlorella protothecoides [2]; hormone 10 ng,1.07 ± 0.028
same,growth rate,Chlorella protothecoides [2]; hormone 100 ng,1.16 ± 0.152
same,growth rate,Scenedesmus obliquus [3]; hormone 0.01 ng,0.26 ± 0.042
same,growth rate,Scenedesmus obliquus [3]; hormone 0.1 ng,0.28 ± 0.011
same,growth rate,Scenedesmus obliquus [3]; hormone 1 ng,0.33 ± 0.020
same,growth rate,Scenedesmus obliquus [3]; hormone 10 ng,0.28 ± 0.099
same,growth rate,Scenedesmus obliquus [3]; hormone 100 ng,0.39 ± 0.053
same,growth rate,Scenedesmus obliquus [4]; hormone 0.01 ng,0.84 ± 0.087
same,growth rate,Scenedesmus obliquus [4]; hormone 0.1 ng,0.85 ± 0.042
same,growth rate,Scenedesmus obliquus [4]; hormone 1 ng,0.81 ± 0.042
same,growth rate,Scenedesmus obliquus [4]; hormone 10 ng,0.80 ± 0.141
same,growth rate,Scenedesmus obliquus [4]; hormone 100 ng,0.73 ± 0.046
"O=C(O)COc1ccc(Cl)cc1Cl [2,4-Dichlorophenoxyacetic, 2,4-dichlorophenoxyacetic acid]",growth rate,Chlorella protothecoides [1]; hormone 0.01 ng,1.40 ± 0.061
same,growth rate,Chlorella protothecoides [1]; hormone 0.1 ng,1.53 ± 0.069
same,growth rate,Chlorella protothecoides [1]; hormone 1 ng,1.43 ± 0.069
same,growth rate,Chlorella protothecoides [1]; hormone 10 ng,1.31 ± 0.087
same,growth rate,Chlorella protothecoides [1]; hormone 100 ng,1.50 ± 0.081
same,growth rate,Chlorella protothecoides [2]; hormone 0.01 ng,1.09 ± 0.035
same,growth rate,Chlorella protothecoides [2]; hormone 0.1 ng,1.08 ± 0.133
same,growth rate,Chlorella protothecoides [2]; hormone 1 ng,1.01 ± 0.035
same,growth rate,Chlorella protothecoides [2]; hormone 10 ng,1.08 ± 0.030
same,growth rate,Chlorella protothecoides [2]; hormone 100 ng,1.03 ± 0.069
same,growth rate,Scenedesmus obliquus [3]; hormone 0.01 ng,0.28 ± 0.030
same,growth rate,Scenedesmus obliquus [3]; hormone 0.1 ng,0.23 ± 0.040
same,growth rate,Scenedesmus obliquus [3]; hormone 1 ng,0.31 ± 0.020
same,growth rate,Scenedesmus obliquus [3]; hormone 10 ng,0.24 ± 0.081
same,growth rate,Scenedesmus obliquus [3]; hormone 100 ng,0.23 ± 0.040
same,growth rate,Scenedesmus obliquus [4]; hormone 0.01 ng,0.42 ± 0.035
same,growth rate,Scenedesmus obliquus [4]; hormone 0.1 ng,0.44 ± 0.000
same,growth rate,Scenedesmus obliquus [4]; hormone 1 ng,0.47 ± 0.023
same,growth rate,Scenedesmus obliquus [4]; hormone 10 ng,0.44 ± 0.028
same,growth rate,Scenedesmus obliquus [4]; hormone 100 ng,0.33 ± 0.042
"c1ccc(CNc2ncnc3nc[nH]c23)cc1 [6-Benzylaminopurine, 6-benzylaminopurine]",growth rate,Chlorella protothecoides [1]; hormone 0.01 ng,1.48 ± 0.121
same,growth rate,Chlorella protothecoides [1]; hormone 0.1 ng,1.54 ± 0.081
same,growth rate,Chlorella protothecoides [1]; hormone 1 ng,1.50 ± 0.012
same,growth rate,Chlorella protothecoides [1]; hormone 10 ng,1.52 ± 0.117
same,growth rate,Chlorella protothecoides [1]; hormone 100 ng,1.46 ± 0.150
same,growth rate,Chlorella protothecoides [2]; hormone 0.01 ng,1.00 ± 0.030
same,growth rate,Chlorella protothecoides [2]; hormone 0.1 ng,1.12 ± 0.011
same,growth rate,Chlorella protothecoides [2]; hormone 1 ng,1.07 ± 0.035
same,growth rate,Chlorella protothecoides [2]; hormone 10 ng,1.04 ± 0.083
same,growth rate,Chlorella protothecoides [2]; hormone 100 ng,1.08 ± 0.023
same,growth rate,Scenedesmus obliquus [3]; hormone 0.01 ng,0.28 ± 0.081
same,growth rate,Scenedesmus obliquus [3]; hormone 0.1 ng,0.32 ± 0.061
same,growth rate,Scenedesmus obliquus [3]; hormone 1 ng,0.39 ± 0.092
same,growth rate,Scenedesmus obliquus [3]; hormone 10 ng,0.36 ± 0.092
same,growth rate,Scenedesmus obliquus [3]; hormone 100 ng,0.33 ± 0.104
same,growth rate,Scenedesmus obliquus [4]; hormone 0.01 ng,0.46 ± 0.056
same,growth rate,Scenedesmus obliquus [4]; hormone 0.1 ng,0.37 ± 0.099
same,growth rate,Scenedesmus obliquus [4]; hormone 1 ng,0.47 ± 0.011
same,growth rate,Scenedesmus obliquus [4]; hormone 10 ng,0.47 ± 0.064
same,growth rate,Scenedesmus obliquus [4]; hormone 100 ng,0.52 ± 0.060
C=C1C[C@]23C[C@@]1(O)CC[C@H]2[C@@]12C=C[C@H](O)[C@@](C)(C(=O)O1)[C@H]2[C@@H]3C(=O)O [Gibberellic acid],growth rate,Chlorella protothecoides [1]; hormone 0.01 ng,1.52 ± 0.201
same,growth rate,Chlorella protothecoides [1]; hormone 0.1 ng,1.52 ± 0.151
same,growth rate,Chlorella protothecoides [1]; hormone 1 ng,1.46 ± 0.090
same,growth rate,Chlorella protothecoides [1]; hormone 10 ng,1.52 ± 0.099
same,growth rate,Chlorella protothecoides [1]; hormone 100 ng,1.46 ± 0.050
same,growth rate,Chlorella protothecoides [2]; hormone 0.01 ng,1.06 ± 0.011
same,growth rate,Chlorella protothecoides [2]; hormone 0.1 ng,1.02 ± 0.046
same,growth rate,Chlorella protothecoides [2]; hormone 1 ng,1.00 ± 0.030
same,growth rate,Chlorella protothecoides [2]; hormone 10 ng,1.09 ± 0.122
same,growth rate,Chlorella protothecoides [2]; hormone 100 ng,1.10 ± 0.070
same,growth rate,Scenedesmus obliquus [3]; hormone 0.01 ng,0.44 ± 0.083
same,growth rate,Scenedesmus obliquus [3]; hormone 0.1 ng,0.50 ± 0.046
same,growth rate,Scenedesmus obliquus [3]; hormone 1 ng,0.43 ± 0.020
same,growth rate,Scenedesmus obliquus [3]; hormone 10 ng,0.36 ± 0.050
same,growth rate,Scenedesmus obliquus [3]; hormone 100 ng,0.42 ± 0.064
same,growth rate,Scenedesmus obliquus [4]; hormone 0.01 ng,0.59 ± 0.064
same,growth rate,Scenedesmus obliquus [4]; hormone 0.1 ng,0.47 ± 0.081
same,growth rate,Scenedesmus obliquus [4]; hormone 1 ng,0.56 ± 0.087
same,growth rate,Scenedesmus obliquus [4]; hormone 10 ng,0.56 ± 0.141
same,growth rate,Scenedesmus obliquus [4]; hormone 100 ng,0.51 ± 0.110
"O=C(O)Cc1c[nH]c2ccccc12 [Indole-3-acetic acid, indole-3-acetic acid]",growth rate,Chlorella protothecoides [1]; hormone 0.01 ng,1.62 ± 0.133
same,growth rate,Chlorella protothecoides [1]; hormone 0.1 ng,1.61 ± 0.072
same,growth rate,Chlorella protothecoides [1]; hormone 1 ng,1.49 ± 0.122
same,growth rate,Chlorella protothecoides [1]; hormone 10 ng,1.60 ± 0.099
same,growth rate,Chlorella protothecoides [1]; hormone 100 ng,1.60 ± 0.076
same,growth rate,Chlorella protothecoides [2]; hormone 0.01 ng,1.06 ± 0.030
same,growth rate,Chlorella protothecoides [2]; hormone 0.1 ng,1.05 ± 0.019
same,growth rate,Chlorella protothecoides [2]; hormone 1 ng,0.97 ± 0.020
same,growth rate,Chlorella protothecoides [2]; hormone 10 ng,1.13 ± 0.019
same,growth rate,Chlorella protothecoides [2]; hormone 100 ng,1.02 ± 0.061
same,growth rate,Scenedesmus obliquus [3]; hormone 0.01 ng,0.23 ± 0.020
same,growth rate,Scenedesmus obliquus [3]; hormone 0.1 ng,0.36 ± 0.127
same,growth rate,Scenedesmus obliquus [3]; hormone 1 ng,0.42 ± 0.081
same,growth rate,Scenedesmus obliquus [3]; hormone 10 ng,0.47 ± 0.020
same,growth rate,Scenedesmus obliquus [3]; hormone 100 ng,0.41 ± 0.053
same,growth rate,Scenedesmus obliquus [4]; hormone 0.01 ng,0.42 ± 0.020
same,growth rate,Scenedesmus obliquus [4]; hormone 0.1 ng,0.47 ± 0.061
same,growth rate,Scenedesmus obliquus [4]; hormone 1 ng,0.49 ± 0.030
same,growth rate,Scenedesmus obliquus [4]; hormone 10 ng,0.49 ± 0.023
same,growth rate,Scenedesmus obliquus [4]; hormone 100 ng,0.62 ± 0.092
"c1coc(CNc2ncnc3[nH]cnc23)c1 [Kinetin, kinetin]",growth rate,Chlorella protothecoides [1]; hormone 0.01 ng,1.60 ± 0.050
same,growth rate,Chlorella protothecoides [1]; hormone 0.1 ng,1.50 ± 0.050
same,growth rate,Chlorella protothecoides [1]; hormone 1 ng,1.44 ± 0.110
same,growth rate,Chlorella protothecoides [1]; hormone 10 ng,1.60 ± 0.070
same,growth rate,Chlorella protothecoides [1]; hormone 100 ng,1.58 ± 0.061
same,growth rate,Chlorella protothecoides [2]; hormone 0.01 ng,1.08 ± 0.023
same,growth rate,Chlorella protothecoides [2]; hormone 0.1 ng,1.10 ± 0.042
same,growth rate,Chlorella protothecoides [2]; hormone 1 ng,1.02 ± 0.011
same,growth rate,Chlorella protothecoides [2]; hormone 10 ng,1.18 ± 0.050
same,growth rate,Chlorella protothecoides [2]; hormone 100 ng,1.19 ± 0.035
same,growth rate,Scenedesmus obliquus [3]; hormone 0.01 ng,0.28 ± 0.061
same,growth rate,Scenedesmus obliquus [3]; hormone 0.1 ng,0.26 ± 0.076
same,growth rate,Scenedesmus obliquus [3]; hormone 1 ng,0.36 ± 0.042
same,growth rate,Scenedesmus obliquus [3]; hormone 10 ng,0.31 ± 0.028
same,growth rate,Scenedesmus obliquus [3]; hormone 100 ng,0.28 ± 0.076
same,growth rate,Scenedesmus obliquus [4]; hormone 0.01 ng,0.57 ± 0.133
same,growth rate,Scenedesmus obliquus [4]; hormone 0.1 ng,0.73 ± 0.042
same,growth rate,Scenedesmus obliquus [4]; hormone 1 ng,0.92 ± 0.113
same,growth rate,Scenedesmus obliquus [4]; hormone 10 ng,0.37 ± 0.070
same,growth rate,Scenedesmus obliquus [4]; hormone 100 ng,0.36 ± 0.060
